In ChEMBL document CHEMBL5032529, “Synthesis and evaluation of tetrahydroisoquinoline derivatives against Trypanosoma brucei rhodesiense” (Eur J Med Chem, 2021):

Assays:
[1] = tested on: Trypanosoma brucei rhodesiense; test: Antitrypanosomal activity against Trypanosoma brucei rhodesiense STIB900 assessed as parasite growth inhibition measured after 72 hrs by alamar blue dye based spectrofluorimetric analysis; type: functional, organism-based; details: STIB900, 72 h
Vero = test: Cytotoxicity against African green monkey Vero cells assessed as reduction in cell viability measured after 72 hrs by SRB assay; type: cell-based; details: Chlorocebus sabaeus
[2] = Selectivity index, ratio of IC50 for cytotoxicity against African green monkey Vero cells to IC50 for antitrypanosomal activity against Trypanosoma brucei rhodesiense STI B900; type: toxicity, cell-based; details: read-out: Ratio IC50

CN1Cc2ccc(OCc3ccc(-c4ccc(Cl)cc4)cc3)cc2[C@@H](O)C1
IC50 [1]: 0.28 µM
IC50 (Vero): 21.7 µM
selectivity ratio [2]: 77.5

COCCOCOc1ccc2c(c1)[C@@H](O)CN(C)C2
IC50 [1]: > 50 µM
IC50 (Vero): > 50 µM

CN1CCc2cc(Oc3ccccc3)ccc2C1
IC50 [1]: 19.8 µM
IC50 (Vero): > 100 µM
selectivity ratio [2]: > 5.7

Cc1ccccc1COc1ccc2c(c1)C(O)CNC2 (stereo unspecified)
IC50 [1]: 3.26 µM
IC50 (Vero): > 25 µM
selectivity ratio [2]: > 7.7

OC1CNCc2c(OCCC3CCCCC3)cccc21 (stereo unspecified)
IC50 [1]: 2.01 µM
IC50 (Vero): 25.3 µM
selectivity ratio [2]: 12.6

CN1CCc2cc(Oc3ccc(-c4ccccc4)cc3)ccc2C1
IC50 [1]: 2.7 µM
IC50 (Vero): 22.3 µM
selectivity ratio [2]: 8.3

CN1CCc2cc(OCCCN3CCOCC3)ccc2C1
IC50 [1]: 25.9 µM
IC50 (Vero): > 50 µM
selectivity ratio [2]: > 1.9

CN1Cc2ccc(OCc3ccc(-c4ccccc4)cc3)cc2[C@@H](OCc2ccc(-c3ccccc3)cc2)C1
IC50 [1]: 2.8 µM
IC50 (Vero): > 10 µM
selectivity ratio [2]: > 3.6

CN(C)CCOc1ccc2c(c1)[C@@H](O)CN(C)C2
IC50 [1]: > 50 µM
IC50 (Vero): > 50 µM

CN1Cc2ccc(OCc3cccnc3)cc2[C@@H](O)C1
IC50 [1]: > 50 µM
IC50 (Vero): > 50 µM

CN1Cc2ccc(OCc3ccc(-c4cccc(Cl)c4)cc3)cc2[C@@H](O)C1
IC50 [1]: 2.8 µM
IC50 (Vero): 25.5 µM
selectivity ratio [2]: 9.1

Cc1c2ccncc2c(C)c2c1[nH]c1ccccc12 [ELLIPTECINE]
IC50 (Vero): 2.4 µM

CCCCCCCCCCCC1c2ccc(O)cc2[C@@H](O)CN1C (stereo partly specified)
IC50 [1]: 0.39 µM

CC1(C)N=C(N)N=C(N)N1OCCCOc1cc(Cl)c(Cl)cc1Cl
IC50 [1]: 0.25 µM
IC50 (Vero): > 10 µM
selectivity ratio [2]: > 40

CN1Cc2ccc(OCCCc3ccccc3)cc2[C@@H](O)C1
IC50 [1]: 18.7 µM
IC50 (Vero): > 50 µM
selectivity ratio [2]: > 2.7

CN1Cc2c(OCc3ccccc3)cccc2[C@@H](O)C1
IC50 [1]: 69.8 µM
IC50 (Vero): > 100 µM
selectivity ratio [2]: > 1.4

CN1Cc2ccc(OCC3CCNCC3)cc2[C@@H](O)C1
IC50 [1]: > 100 µM
IC50 (Vero): > 100 µM

CCCN1Cc2ccc(O)cc2C(O)C1 (stereo unspecified)
IC50 [1]: > 100 µM
IC50 (Vero): > 100 µM

Oc1ccc2c(c1)C(O)CN(Cc1ccc(-c3ccccc3)cc1)C2 (stereo unspecified)
IC50 [1]: 5.4 µM
IC50 (Vero): > 50 µM
selectivity ratio [2]: > 9.3

CN1Cc2ccc(OCc3ccc(Br)cc3)cc2[C@@H](O)C1
IC50 [1]: 2.5 µM
IC50 (Vero): 37 µM
selectivity ratio [2]: 14.8

CN1CCc2cc(O)ccc2C1
IC50 [1]: > 100 µM
IC50 (Vero): > 100 µM

CN1CCc2cc(-c3ccccc3)ccc2C1
IC50 [1]: 3 µM
IC50 (Vero): > 50 µM
selectivity ratio [2]: > 16.7

OC1CN(Cc2ccccc2)Cc2ccc(OCc3ccc(-c4ccccc4)cc3)cc21 (stereo unspecified)
IC50 [1]: 2.7 µM
IC50 (Vero): 14.8 µM
selectivity ratio [2]: 5.5

CN1Cc2ccc(OCc3ccc(-c4ccccc4)cc3)cc2[C@@H](OC(=O)c2ccccc2)C1
IC50 [1]: 16.4 µM
IC50 (Vero): 10.5 µM
selectivity ratio [2]: 0.6

CN1CCc2cc(OCCC3CCCCC3)ccc2C1
IC50 [1]: 2.9 µM
IC50 (Vero): 25 µM
selectivity ratio [2]: 8.6

CN1Cc2ccc(O)cc2[C@@H](OCCC2CCCCC2)C1
IC50 [1]: 19.1 µM
IC50 (Vero): > 50 µM
selectivity ratio [2]: > 2.6

CN1CCc2cc(-c3ccc4ccccc4c3)ccc2C1
IC50 [1]: 2.7 µM
IC50 (Vero): 24.1 µM
selectivity ratio [2]: 8.9

COc1cccc(-c2ccc(COc3ccc4c(c3)[C@@H](O)CN(C)C4)cc2)c1
IC50 [1]: 2.8 µM
IC50 (Vero): 10.8 µM
selectivity ratio [2]: 3.9

COc1cccc(-c2cccc(COc3ccc4c(c3)[C@@H](O)CN(C)C4)c2)c1
IC50 [1]: 2.9 µM
IC50 (Vero): 24.3 µM
selectivity ratio [2]: 8.4

CN1CCc2cc(-c3ccc(-c4ccccc4)cc3)ccc2C1
IC50 [1]: 0.27 µM
IC50 (Vero): 15.6 µM
selectivity ratio [2]: 57.8

CN1Cc2ccc(OCCC3CCCCC3)cc2[C@@H](O)C1
IC50 [1]: 2.5 µM
IC50 (Vero): > 50 µM
selectivity ratio [2]: > 20

OC1CNCc2ccc(OCc3ccc(-c4ccccc4)cc3)cc21 (stereo unspecified)
IC50 [1]: 0.25 µM
IC50 (Vero): 20.8 µM
selectivity ratio [2]: 83.2

CN1Cc2ccc(OCc3ccc(Oc4ccc(F)cc4)cc3)cc2[C@@H](O)C1
IC50 [1]: 2.7 µM
IC50 (Vero): 5.6 µM
selectivity ratio [2]: 2.1

CN1Cc2c(O)cccc2[C@@H](O)C1
IC50 [1]: > 100 µM
IC50 (Vero): > 100 µM

CN1Cc2ccc(OC(c3ccccc3)(c3ccccc3)c3ccccc3)cc2[C@@H](O)C1
IC50 [1]: 20.8 µM
IC50 (Vero): 87.9 µM
selectivity ratio [2]: 4.2

CN1Cc2ccc(OCc3ccc(-c4ccccc4)cc3)cc2[C@H](OC(=O)c2ccccc2)C1
IC50 [1]: 16.3 µM
IC50 (Vero): 12.9 µM
selectivity ratio [2]: 0.8

CN1Cc2ccc(OCc3ccccc3)cc2[C@@H](OCc2ccccc2)C1
IC50 [1]: 2.8 µM
IC50 (Vero): 23.5 µM
selectivity ratio [2]: 8.4

CN1Cc2ccc(OCCc3ccccc3)cc2[C@@H](O)C1
IC50 [1]: 17.9 µM
IC50 (Vero): > 50 µM
selectivity ratio [2]: > 2.8

CN1Cc2c(OCCC3CCCCC3)cccc2[C@@H](O)C1
IC50 [1]: 13 µM
IC50 (Vero): 62.7 µM
selectivity ratio [2]: 4.8

OC1CNCc2c(OCc3ccccc3)cccc21 (stereo unspecified)
IC50 [1]: 26.2 µM
IC50 (Vero): > 50 µM
selectivity ratio [2]: > 1.9

COc1cccc2c1CN(C)C[C@@H]2O
IC50 [1]: > 100 µM
IC50 (Vero): > 100 µM

Cc1cccc(COc2ccc3c(c2)[C@@H](O)CN(C)C3)c1
IC50 [1]: 20.3 µM
IC50 (Vero): > 50 µM
selectivity ratio [2]: > 2.5

CN1Cc2ccc(OCCOc3ccccc3)cc2[C@@H](O)C1
IC50 [1]: 17.9 µM
IC50 (Vero): > 100 µM
selectivity ratio [2]: > 5.6

OC1CNCc2ccc(OCCC3CCCCC3)cc21 (stereo unspecified)
IC50 [1]: 2.5 µM
IC50 (Vero): > 50 µM
selectivity ratio [2]: > 20

CCCCCCCCCCCCOc1ccc2c(c1)[C@@H](O)CN(C)C2
IC50 [1]: 2.4 µM
IC50 (Vero): 18.3 µM
selectivity ratio [2]: 7.6

OC1CNCc2ccc(OCc3cccc(Br)c3)cc21 (stereo unspecified)
IC50 [1]: 3.33 µM
IC50 (Vero): 54.3 µM
selectivity ratio [2]: 16.3

CN1Cc2ccc(OCCCn3cnc([N+](=O)[O-])c3)cc2[C@@H](O)C1
IC50 [1]: > 50 µM
IC50 (Vero): > 50 µM

CN1Cc2ccc(OCc3ccc(-c4ccc(F)cc4)cc3)cc2[C@@H](O)C1
IC50 [1]: 1.4 µM
IC50 (Vero): 33.8 µM
selectivity ratio [2]: 24.1

CN1Cc2ccc(OCc3cccc(-c4ccc(Cl)cc4)c3)cc2[C@@H](O)C1
IC50 [1]: 2.9 µM
IC50 (Vero): 27.3 µM
selectivity ratio [2]: 9.4

CCN1Cc2ccc(O)cc2C(O)C1 (stereo unspecified)
IC50 [1]: > 100 µM
IC50 (Vero): > 100 µM

Oc1ccc2c(c1)C(O)CNC2 (stereo unspecified)
IC50 [1]: > 100 µM
IC50 (Vero): > 100 µM

CN1Cc2ccc(OCc3ccc(Oc4ccccc4)cc3)cc2[C@@H](O)C1
IC50 [1]: 2.7 µM
IC50 (Vero): 3.4 µM
selectivity ratio [2]: 1.3

CN1Cc2ccc(OCc3cccc(Br)c3)cc2[C@@H](O)C1
IC50 [1]: 2.2 µM
IC50 (Vero): 60.3 µM
selectivity ratio [2]: 27.4

CN1Cc2ccc(O)cc2[C@@H](OCc2ccccc2)C1
IC50 [1]: > 50 µM
IC50 (Vero): > 50 µM

COc1ccc(COc2ccc3c(c2)[C@@H](O)CN(C)C3)cc1
IC50 [1]: 17.5 µM
IC50 (Vero): > 50 µM
selectivity ratio [2]: > 2.9

CN1Cc2ccc(OCCC3CCCCC3)cc2[C@@H](OCCC2CCCCC2)C1
IC50 [1]: 2.3 µM
IC50 (Vero): 23.6 µM
selectivity ratio [2]: 10.3

CN1Cc2ccc(OCc3ccc(-c4ccc5ccccc5c4)cc3)cc2[C@@H](O)C1
IC50 [1]: 0.24 µM
IC50 (Vero): 0.31 µM
selectivity ratio [2]: 1.3

OC1CNCc2c(OCc3ccc(-c4ccccc4)cc3)cccc21 (stereo unspecified)
IC50 [1]: 2.7 µM
IC50 (Vero): 21.6 µM
selectivity ratio [2]: 8

CN1Cc2ccc(O)cc2[C@@H](OCc2ccc(-c3ccccc3)cc2)C1
IC50 [1]: 6.4 µM
IC50 (Vero): > 50 µM
selectivity ratio [2]: > 7.8

OC1CNCc2ccc(OCc3ccccc3)cc21 (stereo unspecified)
IC50 [1]: 17.4 µM
IC50 (Vero): > 50 µM
selectivity ratio [2]: > 2.9

CN1Cc2ccc(OCCCN3CCOCC3)cc2[C@@H](O)C1
IC50 [1]: 27.6 µM
IC50 (Vero): > 50 µM
selectivity ratio [2]: > 1.8

COc1ccc2c(c1)[C@@H](O)CN(C)C2
IC50 [1]: > 100 µM
IC50 (Vero): > 100 µM

CN1Cc2ccc(OCC3CCCCC3)cc2[C@@H](O)C1
IC50 [1]: 2.8 µM
IC50 (Vero): 65.6 µM
selectivity ratio [2]: 23.4

CN1CCc2cc(OCc3ccc(-c4ccccc4)cc3)ccc2C1
IC50 [1]: 2.3 µM
IC50 (Vero): 16.5 µM
selectivity ratio [2]: 7.2

CN1Cc2ccc(OCc3ccccc3)cc2[C@@H](O)C1
IC50 [1]: 25.6 µM
IC50 (Vero): > 100 µM
selectivity ratio [2]: > 3.9

CN1Cc2ccc(OCc3ccc(-c4ccc(-c5ccccc5)cc4)cc3)cc2[C@@H](O)C1
IC50 [1]: 0.28 µM
IC50 (Vero): 0.28 µM
selectivity ratio [2]: 1

CN1Cc2c(OCc3ccc(-c4ccccc4)cc3)cccc2[C@@H](O)C1
IC50 [1]: 3.1 µM
IC50 (Vero): > 50 µM
selectivity ratio [2]: > 16

OC1CCCc2ccc(OCc3ccccc3)cc21 (stereo unspecified)
IC50 [1]: 65.9 µM
IC50 (Vero): 39 µM
selectivity ratio [2]: 0.6

Cc1ccccc1COc1cccc2c1CNCC2O (stereo unspecified)
IC50 [1]: 16.5 µM
IC50 (Vero): > 100 µM
selectivity ratio [2]: > 6.1

OC1CNCc2c(OCc3cccc(Br)c3)cccc21 (stereo unspecified)
IC50 [1]: 2.6 µM
IC50 (Vero): 73.5 µM
selectivity ratio [2]: 28.3

Oc1ccc2c(c1)C(O)CCC2 (stereo unspecified)
IC50 [1]: > 100 µM
IC50 (Vero): > 100 µM

Oc1cccc2c1CNCC2O (stereo unspecified)
IC50 [1]: > 100 µM
IC50 (Vero): > 100 µM

N=C(N)c1ccc(OCCCCCOc2ccc(C(=N)N)cc2)cc1 [PENTAMIDINE]
IC50 [1]: 0.00707 µM

Oc1ccc2c(c1)C(O)CN(Cc1ccccc1)C2 (stereo unspecified)
IC50 [1]: 70.5 µM
IC50 (Vero): > 100 µM
selectivity ratio [2]: > 1.4

CN1Cc2ccc(OCc3ccc(-c4ccccc4)cc3)cc2[C@@H](O)C1
IC50 [1]: 2.9 µM
IC50 (Vero): 23 µM
selectivity ratio [2]: 7.9

OC1CCCc2ccc(OCc3ccc(-c4ccccc4)cc3)cc21 (stereo unspecified)
IC50 [1]: > 100 µM
IC50 (Vero): > 100 µM

CN1Cc2ccc(OCCCN3CCNCC3)cc2[C@@H](O)C1
IC50 [1]: > 100 µM
IC50 (Vero): > 100 µM

CN1Cc2ccc(O[Si](c3ccccc3)(c3ccccc3)C(C)(C)C)cc2[C@@H](O)C1
IC50 [1]: 2.8 µM
IC50 (Vero): 19.1 µM
selectivity ratio [2]: 6.8
